Data taken from publication PMC4157788, “A Small Library of Synthetic Di-Substituted 1, 4-Naphthoquinones Induces ROS-Mediated Cell Death in Murine Fibroblasts” (PLoS ONE, 2014).
Where two headings read alike, the source gives them in different places.

Columns and labels:
L929 cells [1] = assay: Ascorbic acid protection assay (MTT viability); assay type: cell-based, murine; details: L929 cells pre-loaded for 4 h with 10 µM ascorbic acid, compound at IC50, 48 hrs
Experimental: […] The cells were then thoroughly washed with Hank's Balanced Salt Solution (HBSS (Invitrogen) and the MTT viability assay was conducted as described above.

L929 cells [2] = assay: Flow cytometry assessment of apoptosis (Annexin V-FITC / propidium iodide); assay type: cell-based, murine; details: 48 hrs, IC50 (lowest concentration tested for highly cytotoxic compounds), versus medium alone
Experimental: The cells were then washed in FACS buffer (phosphate buffered saline +2% fetal bovine serum), resuspended in 50 µl of buffer and then incubated with 30% normal mouse serum (Sigma) to prevent non-specific staining, for 15 min. at room temperature. The cells were then treated with 5 µl of FITC-conjugated annexin V (1 mg/ml stock) and 2 µl of propidium iodide (5 mg/ml stock). The cells were then mixed gently and incubated at room temperature for 15 minutes in the dark followed by an analysis by flow cytometry within the hour.

[3] = tested on: murine fibroblast cell line (L929); assay: MTT viability assay; assay type: cell-based; details: L929 cells; for Toxicity group: 48 hrs, MTT, Group I no difference from DMSO, Group II dose-responsive inhibition, Group III >50% inhibition at the lowest concentration; for IC50: Mus musculus, read-out: IC50 (concentration of compound that induces 50% inhibition of survival); for IC50 / IC50 (concentration of compound that induces 50% inhibition of survival): MTT assay, 48 hrs incubation, doubling dilutions
Experimental: The MTT (3-(4, 5-dimethylthiazol-2-yl)-2, 5-diphenyl tetrazolium bromide) viability assays were carried out as per manufacturers' instructions (Sigma). The L929 cells were plated at 50,000 cells per well in a 96-well flat-bottom plate (Becton-Dickinson Labware, Franklin Lakes, NJ). The cells were cultured with decreasing concentrations of the compounds (in duplicate), beginning at 0.50 mg/ml and decreasing by half over eleven additional dilutions. As controls, cells remained untreated (media alone) or were treated with equivalent dilutions of dimethylsulfoxide (DMSO, vehicle control) (Sigma). Following a 48 h incubation, the MTT reagent was added at 10% of the total volume per well. Following a 4 h incubation, the formed crystals were solubilized by removing approximately ¾ of the supernatant and adding 50 µl of solvent (10% Triton × and 1% 12 N HCl in isopropanol) (Sigma). All wells were vigorously pipetted (without forming bubbles) to help dissolve the crystals. The plates were then read in a 96-well plate spectrophotometer at 570 nm.

L929 cells [4] = assay: Light microscopy of compound-treated cells (morphology); assay type: cell-based, murine; details: 24 hr, compound at IC50 (H2O2 600 µM), light microscopy 40X
Experimental: The cells were cultured for 24 h at 37°C, 5% CO2. […] Digital images were captured using the AxioCam HR digital camera and were processed with Axiovision Software, Version 4.1.

L929 cells [5] = assay: Catalase and superoxide dismutase (SOD) protection assay (MTT viability); assay type: cell-based, murine; details: 48 hr; for Protection of compound-treated cells by SOD (viability): compound at IC50, SOD 0.5 mg/ml; for Protection of compound-treated cells by combination of catalase and SOD (viability): compound at IC50, catalase 1 mg/ml + SOD 0.5 mg/ml; for Protection of compound-treated cells by catalase (viability): compound at IC50, catalase 1 mg/ml
Experimental: L929 cells were plated at 50,000 cells/well in a 96-well flat-bottom plate. Catalase (1 mg/ml), SOD (0.5 mg/ml), or combinations of the two were added to the cells. The cells were also treated with the indicated compounds at a concentration that inhibited 50% of cellular viability or with media or DMSO as controls. Following a 48 h incubation period, cellular viability was assessed as described above (MTT assay).

L929 cells [6] = assay: Detection of reactive oxygen species (ROS) by DHCF-DA; assay type: cell-based, murine; details: compound at IC50, 24 hrs, fluorometric assay
Experimental: Cells were plated at 50,000 cells per well in 96-well plates, protected or unprotected by 10 µM ascorbic acid. Following a 4 h incubation period, the cells were then treated with the indicated compounds at the IC50 or with H2O2 as a positive control. Twenty-four hours later, the plates were centrifuged and the supernatants were collected. The adherent cells were treated with 20 µL of 0.25% trypsin (Invitrogen) for 2 min. The cells were then removed and transferred to black-walled 96-well plates to prevent bleeding of fluorescence between sample wells. Dichlorofluorescein-Diacetate (10 µM) (Invitrogen - Molecular Probes), was then added to each well. The plates were then immediately read on a fluorescent plate reader using excitation wavelength of 485 nm and emission wavelength of 538 nm. Fluorescence was determined every 10 min over a 320 min. period.

caspase 3 in L929 cells = assay: Detection of active caspase-3 (colorimetric DEVD-pNA assay); assay type: cell-based, murine; details: 24 h treatment
Experimental: The assay was performed as per the manufacturers' instructions (BioSource International, Camarillo, CA). The L929 cells were plated at 3×10^6 cells per well in 6-well plates. The cells were then treated with the indicated compounds for 24 h. After treatment with the compounds, the cells were centrifuged, washed twice with 1× PBS, were re-suspended in 50 µL of chilled Cell Lysis Buffer and were incubated for 10 min. on ice. The samples were then centrifuged and the cytosolic extracts were then transferred to 96-well flat-bottom plates. Reaction buffer (5 µL of 1.0 M DTT to 500 µL of 2× Reaction buffer), made just prior to use, and was added to each well. DEVD-pNA substrate (5 µL) was then added to each well and the samples were incubated in the dark for an additional 2 h. The plates were then read on a spectrophotometer at a wavelength of 405 nm.

L929 cells [7] = assay: Detection of mitochondrial membrane depolarization (DePsipher, flow cytometry); assay type: cell-based, murine; details: compound at IC50, DePsipher
Experimental: L929 cells (5×10^4 cells/well) were cultured in 12-well plates for 48 h in the presence of medium, DMSO, camptothecin (4 µM, positive control) or compound (IC50). The cells were then washed in FACS buffer resuspended in 100 µl of buffer. DePsipher (5, 5′6, 6′-tetrachloro-1, 1′, 3, 3′-tetraethylbenzimidazolylcarbocyanine iodide) (5 µl per sample) (Trevigen, Inc., Gaithersburg, MD) was then added. The cells were incubated at room temp., in the dark for a minimum of 15 min. The cells were assayed within the hour by flow cytometry. 10,000 events per sample were collected and analyzed by EXPO32 software.

| SMILES | Externalization of phosphatidylserine (Annexin V staining) (L929 cells [2]) | Toxicity group [3] | IC50 [3] [µg/mL] | IC50 ([3]; same value converted to µM) [µM] | Effect on cellular morphology (L929 cells [4]) | other results |
| --- | --- | --- | --- | --- | --- | --- |
| O=C1C(c2ccccc2)=C(c2ccccc2)C(=O)c2ccccc21 [Compound 2, 2,3-diphenyl-1,4-napthoquinone] | promoted externalization of PS significantly above that induced by medium alone | Group II Intermediate toxicity | 30 | 96.7 | detrimental to cell survival | Protection of compound-treated cells by ascorbic acid pre-treatment (viability) (L929 cells [1]): partially protected from cell death; Protection of compound-treated cells by SOD (viability) (L929 cells [5]): did not protect; Protection of compound-treated cells by combination of catalase and SOD (viability) (L929 cells [5]): did not protect the cells against compound 2 beyond that provided by catalase alone; Protection of compound-treated cells by catalase (viability) (L929 cells [5]): partially protected; Formation of intracellular reactive oxygen species (ROS) (L929 cells [6]): induced levels of ROS equal to that induced by H2O2; Activation of caspase 3 (caspase 3 in L929 cells): activated caspase 3 equivalently |
| CC1=CC(=O)c2c(O)cccc2C1=O [Compound 5, 2-methyl-5-hydroxy-1,4-napthoquinone, reference compound] | promoted externalization of PS significantly above that induced by medium alone | Group III High toxicity | < 1 | < 5.3 | detrimental to cell survival | Protection of compound-treated cells by ascorbic acid pre-treatment (viability) (L929 cells [1]): partially protected from cell death; Protection of compound-treated cells by SOD (viability) (L929 cells [5]): did not protect; Protection of compound-treated cells by combination of catalase and SOD (viability) (L929 cells [5]): did not protect; Protection of compound-treated cells by catalase (viability) (L929 cells [5]): did not protect; Formation of intracellular reactive oxygen species (ROS) (L929 cells [6]): induced levels of ROS equal to that induced by H2O2; Change in mitochondrial membrane potential (depolarization) (L929 cells [7]): does not activate mitochondrial depolarization; Activation of caspase 3 (caspase 3 in L929 cells): activated caspase 3 equivalently |
| CCC1=C(C)C(=O)c2ccccc2C1=O [Compound 12, 2-ethyl-3-methyl-1,4-napthoquinone] |  |  | 30 | 150 |  |  |
| OO [Compound H2O2, hydrogen peroxide] |  |  |  |  | rounded, granular, and vesiculated |  |
| CCCC1=CC(=O)c2ccccc2C1=O [Compound 11, 2-propyl-1,4-napthoquinone] | promoted externalization of PS significantly above that induced by medium alone | Group II Low toxicity | 60 | 300 |  |  |
| CC(C)=CCC1=C(O)C(=O)c2ccccc2C1=O [Compound 4, 2-hydroxy-3-(3-methyl-2 butenil)-1, 4 naphthoquinone] | promoted externalization of PS significantly above that induced by medium alone |  | 15 | 62 |  |  |
| O=C1c2ccccc2C(=O)C2OC12 (stereo not drawn) [Compound 10, 1,4-napthoquinone epoxide] |  |  | 4 | 23 |  |  |
| O=C1C=CC(=O)c2c(O)cccc21 [Compound 7, 5-hydroxy-1,4-napthoquinone, reference compound] | promoted externalization of PS significantly above that induced by medium alone |  | < 1 | < 5.7 |  |  |
| O=C1C=CC(=O)c2ccccc21 [Compound 6, 1,4-napthoquinone] | promoted externalization of PS significantly above that induced by medium alone |  | < 1 | < 6.3 |  | Activation of caspase 3 (caspase 3 in L929 cells): activated caspase 3 equivalently |
| CC1=C(C)C(=O)c2ccccc2C1=O [Compound 3, 2,3-dimethyl-1,4-napthoquinone] | promoted externalization of PS significantly above that induced by medium alone |  | 8 | 42.9 |  |  |
| CC1=C(C/C=C(\C)CCC[C@H](C)CCC[C@H](C)CCCC(C)C)C(=O)c2ccccc2C1=O [Compound 9, 2-methyl-3-phytyl-1,4-naphthoquinone, reference compound] | promoted externalization of PS significantly above that induced by medium alone |  |  |  | no effect on the cells | IC50 (concentration of compound that induces 50% inhibition of survival) [3]: No inhibition; Formation of intracellular reactive oxygen species (ROS) (L929 cells [6]): induced ROS equal to that generated in non-treated cells |
| N#CC1=C(C#N)C(=O)C(Cl)=C(Cl)C1=O [Compound 8, 2,3-dichloro-5,6-dicyano-1,4-benzoquinone] |  | Group I No toxicity |  |  |  | IC50 (concentration of compound that induces 50% inhibition of survival) [3]: No inhibition |
